Data on one compound can be found in patent US11530216B2, “Deuterated colony stimulating factor-1 receptor (CSF-1R) inhibitors” (Genzyme Corporation, priority 2020, dated 2022).

Like-named read-outs stand apart in the source and are kept apart here.

The assay relates to primary murine microglia. In words: Immunostaining of primary microglia (Iba1+ area, DAPI+ nuclei) after CSF-1 stimulation. The class given is cell-based, mouse. As to conditions: Mus musculus, Microglia. The procedure: Primary mouse microglia were suspended at a concentration of 5×10^5 cells/mL and 100 μL of this cell suspension was added to the inner 60 wells of three 96-well plates. Microglia cells were allowed to rest overnight at 37° C., 5% CO2. […] Cells were then stimulated with 100 ng/mL recombinant mouse CSF-1 for 24 hours. After stimulation, the culture supernatant was removed from each well and aliquoted into two different 96-well plates for subsequent ELISA assays. Plates were fixed with 4% PFA for future immunocytochemistry analysis. Following the stimulation, cells were fixed with 4% PFA for 20 minutes at room temperature. Cells were then rinsed in PBS, washed 3×5 minutes in 0.2% PBT (0.2% Triton X-100 in PBS) and blocked with 10% donkey serum/0.2% PBT for 1 hour at room temperature. […] After staining, plates were imaged on the IN Cell Analyzer 2200 with 9 fields of view acquired per well. […] A one-way ANOVA was used to determine the statistical significance of differences between samples. […] Following a microglial stimulation, immunocytochemistry was completed with Iba1, Ki67, and DAPI to determine microglial morphology, proliferative state, and number. InCell imaging microsope and analysis software was used to quantify Iba1^+ area, and the number of DAPI^+ nuclei within the cultures.

As a reminder, the IC50 is the concentration that inhibits the measured activity by half. As to `[2H]c1nc2cccnc2n1Cc1cc(OC)c2c(c1)O[C@@H](C)[C@H](c1ccc(OC)nc1)O2` [Compound 6, 3-(((2S,3S)-8-methoxy-2-(6-methoxypyridin-3-yl)-3-methyl-2,3-dihydrobenzo[b][1,4]dioxin-6-yl)methyl)-3H-imidazo[4,5-b]pyridine-2-d], the IC50 reads like this: (read-out: IC50 for DAPI (DAPI+ cell number)) 248 nM; (read-out: IC50 for Iba1 (Iba1+ area)) 84.6 nM.
